Test results reported in article PMC10714399, “Open Source Antibiotics: Simple Diarylimidazoles Are Potent against Methicillin-Resistant Staphylococcus aureus” (ACS Infectious Diseases, 2023).
Values after ≈ are worked out from the molar mass of the structure shown. Like-named read-outs stand apart in the source and are kept apart here. One block for each compound: values may come before it.

How the values were obtained:
[1] = test system: Staphylococcus aureus NCTC 13373 (mecA-positive; methicillin-resistant); experiment: In vitro antibacterial activity, MIC (UCL School of Pharmacy assay), MRSA; type: cell-based; conditions: for MIC: Staphylococcus aureus
Procedure: (§1) Staphylococcus aureus NCTC 13373 (mecA-positive; methicillin-resistant, NCTC 13373) was supplied by the National Collection of Type Cultures (NCTC), Public Health England, United Kingdom. Other organisms, S. aureus ATCC 25923 (methicillin-susceptible) and Enterococcus faecalis ATCC 51299 (vanA-positive; vancomycin-resistant), were obtained from the American Type Culture Collection (ATCC) via LGC Standards, UK. A suspension of each organism was prepared from an overnight plate culture (tryptone soya agar) in phosphate-buffered saline (PBS) and adjusted to an absorbance reading at 600 nm of 0.1, which is approximately equivalent to 1 × 10^8 colony-forming units (CFU) per mL. The cultures were further diluted 1:100 in isosensitest broth (Oxoid, United Kingdom) before 100 μL was used to inoculate each well of a 96-well plate that contained diluted samples of the OSA series. Compounds were evaluated over a 2-fold dilution range from 32 to 0.03 μg/mL. Stocks of the samples were prepared in 100% DMSO at […] before being diluted in isosenstitest broth. The highest concentration of DMSO present was 2%, which has been previously shown not to inhibit the growth of the microorganisms (data not shown). […] Vancomycin was used as a quality control compound.

[2] = test system: Enterococcus faecalis ATCC 51299 (vanA-positive; vancomycin-resistant); experiment: In vitro antibacterial activity, MIC (UCL), VRE; type: cell-based
Procedure: as §1

[3] = test system: S. aureus ATCC 25923 (methicillin-susceptible); experiment: In vitro antibacterial activity, MIC (UCL), MSSA; type: cell-based, Staphylococcus aureus; conditions: for MIC: Staphylococcus aureus
Procedure: as §1

Compound: COc1ccc2nc(-c3c[nH]cn3)c(Nc3ccc4c(c3)OCCO4)n2c1 [compound 867]
- MRSA MIC [1]: > 32 µg/mL
- VRE MIC [2]: > 32 µg/mL

Compound: CC(=O)c1ccc(-c2c(-c3ccccn3)nc3n2CCC3)cc1 [OSA_000973]
- MIC ([1]; UCL, read-out: MRSA MIC (UCL)): > 32 µg/mL
- MIC ([2]; read-out: VRE MIC (UCL)): > 32 µg/mL

Compound: COc1ccn2c(Nc3ccc(F)cn3)c(-c3ccccn3)nc2c1.O=CO [compound 839]
- MRSA MIC [1]: 16 µg/mL
- VRE MIC [2]: > 32 µg/mL

Compound: c1ccc(-c2nc3ncccn3c2-c2ccc3occc3c2)nc1 [compound 863]
- MRSA MIC [1]: > 32 µg/mL
- VRE MIC [2]: > 32 µg/mL

Compound: COc1ccc2nc(-c3c[nH]cn3)c(Nc3ccc4c(c3)OCCO4)n2c1 [OSA_000867]
- MIC ([1]; UCL, read-out: MRSA MIC (UCL)): > 32 µg/mL
- MIC ([2]; read-out: VRE MIC (UCL)): > 32 µg/mL

Compound: CC(=O)c1ccc(-c2c(-c3ccccn3)nc3n2CCC3)cc1 [compound 973]
- activity against MRSA, in words [1]: not tolerated
- MIC ([1]; read-out: MRSA MIC): > 32 µg/mL
- MIC ([2]; read-out: VRE MIC): > 32 µg/mL

Compound: CC(C)CN(c1ccc(F)cc1)c1c(-c2ccccn2)nc2cccnn12 [compound 1036]
- MIC ([1]; read-out: MRSA MIC): 32 µg/mL (≈ 88.5 µM)
- MIC ([3]; read-out: MSSA MIC): 32 µg/mL (≈ 88.5 µM)

Compound: CN(c1ccc(F)cc1)c1c(-c2ccccn2)nc2ccc(Br)cn12 [compound 1003]
- MIC ([1]; read-out: MRSA MIC): 16 µg/mL (≈ 40.3 µM)
- MIC ([3]; read-out: MSSA MIC): 16 µg/mL (≈ 40.3 µM)

Compound: N#Cc1cccc(-c2c(-c3ccccn3)nc3n2CCC3)c1 [compound 864]
- MIC ([1]; read-out: MRSA MIC): > 32 µg/mL
- MIC ([2]; read-out: VRE MIC): > 32 µg/mL

Compound: N#Cc1ccc(-c2c(-c3ccccn3)nc3cnccn23)cc1 [OSA_001106]
- MIC ([1]; UCL assay, read-out: MRSA MIC (ug/mL) (UCL)): > 32 µg/mL
- MIC ([3]; UCL assay, read-out: MSSA MIC (ug/mL) (UCL)): > 32 µg/mL

Compound: N#Cc1ccc(C(=O)Nc2c(-c3ccccn3)nc3ccccn23)cc1 [OSA_001016]
- MIC ([1]; UCL, read-out: MRSA MIC (UCL)): > 32 µg/mL
- MIC ([3]; read-out: MSSA MIC (UCL)): > 32 µg/mL

Compound: [2H]C([2H])([2H])N(c1ccc(F)cc1)c1c(-c2ccccn2)nc2ccccn12 [compound 1002]
- MIC ([1]; read-out: MRSA MIC): 16 µg/mL (≈ 49.8 µM)
- MIC ([3]; read-out: MSSA MIC): 16 µg/mL (≈ 49.8 µM)

Compound: CC(C)CN(c1ccc(F)cc1)c1c(-c2ccccn2)nc2cnccn12 [compound 1035]
- MIC ([1]; read-out: MRSA MIC): > 32 µg/mL
- MIC ([3]; read-out: MSSA MIC): > 32 µg/mL

Compound: CN(c1ccc(F)cc1)c1c(-c2ccccn2)nc2cccc(F)n12 [compound 1005]
- MIC ([1]; read-out: MRSA MIC): 32 µg/mL (≈ 95.1 µM)
- MIC ([3]; read-out: MSSA MIC): 32 µg/mL (≈ 95.1 µM)

Compound: CC(C)CN(c1ccc(F)cc1)c1c(-c2nccs2)nc2ccccn12 [compound 1010]
- MRSA MIC [1]: > 32 µg/mL
- MSSA MIC [3]: > 32 µg/mL

Compound: CC(C)CN(Cc1c(-c2ccccn2)nc2ccccn12)c1ccc(F)cc1 [compound 1040]
- MIC ([1]; read-out: MRSA MIC): 32 µg/mL (≈ 85.5 µM)
- MIC ([3]; read-out: MSSA MIC): > 32 µg/mL

Compound: Cc1ccccc1-c1c(-c2ccccn2)nc2n1CCC2 [compound 977]
- MIC ([1]; read-out: MRSA MIC): 32 µg/mL (≈ 116 µM)
- MIC ([2]; read-out: VRE MIC): 32 µg/mL (≈ 116 µM)

Compound: COCc1ccc2nc(-c3ccccn3)c(Nc3cccc(F)c3)n2c1 [OSA_000852]
- MIC ([1]; UCL, read-out: MRSA MIC (UCL)): > 32 µg/mL
- MIC ([2]; read-out: VRE MIC (UCL)): > 32 µg/mL

Compound: Fc1ccc(Nc2c(-c3ccc[nH]3)nc3ccccn23)cc1 [OSA_001009]
- MIC ([1]; UCL, read-out: MRSA MIC (UCL)): > 32 µg/mL
- MIC ([3]; read-out: MSSA MIC (UCL)): > 32 µg/mL

Compound: N#Cc1ccc(-c2c(-c3ccccn3)nc3ccccn23)cc1 [compound 1104]
- MRSA MIC [1]: > 32 µg/mL
- MSSA MIC [3]: > 32 µg/mL

Results, then the compound that gave them:

- MRSA MIC [1]: > 32 µg/mL
- VRE MIC [2]: > 32 µg/mL
Compound: COc1ccn2c(Nc3ccc4c(c3)OCCO4)c(-c3c[nH]cn3)nc2c1 [compound 866]

- MIC ([1]; UCL, read-out: MRSA MIC (UCL)): > 32 µg/mL
- MIC ([2]; read-out: VRE MIC (UCL)): > 32 µg/mL
Compound: COc1ccn2c(Nc3cccc(F)c3)c(-c3cscn3)nc2c1 [OSA_000843]

- MIC ([1]; UCL, read-out: MRSA MIC (UCL)): 16 µg/mL (≈ 47.7 µM)
- MIC ([2]; read-out: VRE MIC (UCL)): > 32 µg/mL
Compound: COc1ccn2c(Nc3ccc(F)cn3)c(-c3ccccn3)nc2c1 [OSA_000839]

- MIC ([1]; read-out: MRSA MIC): > 32 µg/mL
- MIC ([2]; read-out: VRE MIC): > 32 µg/mL
Compound: Cn1ccnc1-c1nc2ccccn2c1Nc1ccc(F)cc1 [compound 847]

- MRSA MIC [1]: > 32 µg/mL
- VRE MIC [2]: > 32 µg/mL
Compound: COc1ccn2c(Nc3ccnc(C)c3)c(-c3ccccn3)nc2c1 [compound 854]

- MIC ([1]; read-out: MRSA MIC): > 32 µg/mL
- MIC ([3]; read-out: MSSA MIC): > 32 µg/mL
Compound: Cc1ccc(C(=O)Nc2c(-c3ccccn3)nc3ccccn23)cc1 [compound 1017]

- MRSA MIC [1]: > 32 µg/mL
- VRE MIC [2]: > 32 µg/mL
Compound: COc1ccn2c(NCc3cn(C)cn3)c(-c3ccccn3)nc2c1.O=CO [compound 853]

- MRSA MIC [1]: > 32 µg/mL
- VRE MIC [2]: > 32 µg/mL
Compound: Cc1ccn2c(NC3CCCC3)c(-c3ccc(N(C)C)cc3)nc2c1 [compound 840]

- MIC ([1]; UCL, read-out: MRSA MIC (UCL)): > 32 µg/mL
- MIC ([2]; read-out: VRE MIC (UCL)): > 32 µg/mL
Compound: COc1ccc(-c2nc3ccc(C)cn3c2NCc2ccco2)cc1OC [OSA_000849]

- MIC ([1]; UCL, read-out: MRSA MIC (UCL)): > 32 µg/mL
- MIC ([3]; read-out: MSSA MIC (UCL)): > 32 µg/mL
Compound: Cc1ccc(C(=O)Nc2c(-c3ccccn3)nc3ccccn23)cc1 [OSA_001017]

- MRSA MIC [1]: > 32 µg/mL
- MSSA MIC [3]: > 32 µg/mL
Compound: Cc1ccc(-c2c(-c3ccccn3)nc3cc(N4CCNCC4)ccn23)cc1 [compound 1014]

- MIC ([1]; read-out: MRSA MIC): 8 µg/mL (≈ 29.1 µM)
- MIC ([2]; read-out: VRE MIC): 32 µg/mL (≈ 116 µM)
Compound: Cc1cccc(-c2c(-c3ccccn3)nc3n2CCC3)c1 [compound 976]
